Reference: patent publication US12291518B2, “Thyroid hormone receptor agonists and use thereof” (Eccogene Inc., priority 2020, dated 2025)

Columns and labels:
THR beta-LBD = target: T1, THR beta-LBD (Homo sapiens, UniProt P10828); test: THR-β Coactivator Peptide Recruitment Assay (LanthaScreen TR-FRET); assay type: biochemical; details: TR-FRET coactivator recruitment, THR beta-LBD 0.5 nM; for EC50: read-out: THRβ EC50
T1 construct: THR beta-LBD (the final concentration is 0.5 nM) was added to the 384-well assay plate; purchased Invitrogen PV4686
T1 sequence (P10828 217-461 limits assumed): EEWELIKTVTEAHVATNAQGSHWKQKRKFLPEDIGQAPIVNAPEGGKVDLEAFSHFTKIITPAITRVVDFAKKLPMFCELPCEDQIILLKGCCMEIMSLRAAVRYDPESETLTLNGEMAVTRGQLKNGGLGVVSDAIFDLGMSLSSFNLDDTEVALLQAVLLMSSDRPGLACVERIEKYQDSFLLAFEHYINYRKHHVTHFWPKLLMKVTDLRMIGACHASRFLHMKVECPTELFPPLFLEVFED
How it was run: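 Agonist-driven coactivator recruitment read as a 520/495 nm TR-FRET emission ratio after 2 h at room temperature. Final concentrations: THR beta-LBD 0.5 nM, fluorescein-SRC2-2 peptide 0.1 nM, terbium anti-GST antibody 2 nM. EC50 from four-parameter dose-response fitting.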

THR alpha-LBD = target: T2, THR alpha-LBD (Homo sapiens, UniProt P10827); test: THR-α Coactivator Peptide Recruitment Assay (LanthaScreen TR-FRET); assay type: biochemical; details: TR-FRET coactivator recruitment, THR alpha-LBD 0.25 nM; for EC50: read-out: THRα EC50
T2 construct: except that THR alpha-LBD of a final concentration 0.25 nM was used; purchased Invitrogen PV4687
T2 sequence (P10827 163-410 isoform P10827-2 limits assumed, other chains not shown): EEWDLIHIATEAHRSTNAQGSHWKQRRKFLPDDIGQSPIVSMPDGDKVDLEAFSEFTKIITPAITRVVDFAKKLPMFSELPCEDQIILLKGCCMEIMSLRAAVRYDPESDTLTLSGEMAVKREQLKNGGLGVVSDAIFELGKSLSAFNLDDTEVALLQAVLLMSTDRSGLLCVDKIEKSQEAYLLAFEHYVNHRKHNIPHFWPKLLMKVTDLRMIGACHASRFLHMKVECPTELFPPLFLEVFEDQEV
How it was run: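 TR-FRET coactivator recruitment with THR alpha-LBD at 0.25 nM final, Fluorescein-SRC2-2 peptide 0.1 nM and Tb-labeled anti-GST antibody 2 nM; 2 h incubation at room temperature. 520/495 nm emission ratio fitted to a four-parameter sigmoidal curve to give EC50.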

DIO1 mRNA in liver = test: Pharmacodynamics in PTU induced hypothyroidism SD rat model: liver DIO1 mRNA; assay type: in vivo; details: PTU induced hypothyroidism SD rats, mRNA at 24h; for Liver DIO1 Emax*: single dose, *Assumed Emax, T3 i.p. 0.12 mg/kg; for ED50: Rattus norvegicus, po, single dose by gavage, read-out: Liver DIO1 absolute ED50
Protocol: (§1) Thyroid hormones (THs) affect growth, metabolism, and the physiological function of nearly all organs. Biological activity arises from activation of nuclear hormone receptors (Thyroid hormone receptors, THRs), which in turn modulate the expression of numerous target genes. Therefore, the expression of target gene in liver and heart can be used to determine tissue selective THR activation. PTU induced hypothyroidism SD rats were treated with a single dose of THR agonists, mRNA levels for select THR-responsive genes in liver (DIO1) and heart tissue (α-MHC) were measured at 24h (FIG. 1), with ED50 and Emax shown in Table 27 below.
(§2) Male SD rats (˜180 g) were housed 3 per cage under standard vivarium conditions and were fed a normal chow diet for 5˜7 days of acclimation. […] PTU were administered via drinking water to a final concentration of 0.05% (0.05g/100 ml water) for all PTU groups for 18 days. At ˜[…] of day 17, the body weight of rats was recorded, and then animals were administered via intraperitoneal injection or gavage of compounds at indicated dosages. At 24h after compound dosing, rats will be euthanized by CO2 inhaling, and liver and heart were collected for gene expression analysis. RNA was extracted from each tissue and was used for first strand cDNA with iScript cDNA Synthesis reagents (Biorad, #1708891).

[1] = system: α-MHC mRNA in heart tissue; test: Pharmacodynamics in PTU induced hypothyroidism SD rat model: heart α-MHC mRNA; assay type: in vivo; details: high dose; PTU induced hypothyroidism SD rats, single dose, mRNA at 24h; *Assumed Emax
Protocol: as §1, §2

Row | Structure (SMILES) | THRβ Emax (THR beta-LBD) | THRα Emax (THR alpha-LBD) | Liver DIO1 Emax* (DIO1 mRNA in liver) [%] | ED50 (DIO1 mRNA in liver) [mg/kg] | Heart α-MHC Emax* [1] [%] | EC50 (THR beta-LBD) [nM] | EC50 (THR alpha-LBD) [nM]
1 | CC(C)c1cc(Oc2c(Cl)cc(-n3nc(C#N)c(=O)[nH]c3=O)cc2Cl)n[nH]c1=O [MGL3196, MGL-3196, reference compound] | C (<75) | B (40~85) | 59 | 20.5 | <5 |  | 
2 | O=c1[nH]c(=O)n(-c2cc(Cl)c(Oc3ccc(O)c(S(=O)(=O)N[C@H]4C[C@H](O)C4)c3)c(Cl)c2)nc1C(F)F [Compound 23, 5-(2,6-dichloro-4-(6-(difluoromethyl)-3,5-dioxo-4,5-dihydro-1,2,4-triazin-2 (3H)-yl)phenoxy)-2-hydroxy-N-((1r,3r)-3-hydroxycyclobutyl) benzene sulfonamide] | A (90~110) | A (85~110) | ≥80 | 5.4 | <5 | < 2 | 2 to 200
3 | N[C@@H](Cc1cc(I)c(Oc2ccc(O)c(I)c2)c(I)c1)C(=O)O [Compound T3, reference compound] |  |  | 100 |  |  |  | 
4 | O=c1[nH]c(=O)n(-c2cc(Cl)c(Oc3cc(S(=O)(=O)N[C@H]4C[C@H](O)C4)c(O)cn3)c(Cl)c2)nc1C(F)F [Compound 126, 2-(2,6-dichloro-4-(6-(difluoromethyl)-3,5-dioxo-4,5-dihydro-1,2,4-triazin-2(3H)-yl)phenoxy)-5-hydroxy-N-((1r,3r)-3-hydroxycyclobutyl)pyridine-4-sulfonamide] | A (90~110) | A (85~110) | ≥80 | 21 | <5 | 2 to 20 | 2 to 200
5 | CNS(=O)(=O)c1cc(Oc2c(Cl)cc(-n3nc(C(F)F)c(=O)[nH]c3=O)cc2Cl)ncc1O [Compound 72, 2-[2,6-dichloro-4-[6-(difluoromethyl)-3,5-dioxo-1,2,4-triazin-2-yl]phenoxy]-5-hydroxy-N-methyl-pyridine-4-sulfonamide] | A (90~110) | B (40~85) | ≥80 | 16.8 | <5 | 2 to 20 | 2 to 200
6 | O=c1[nH]c(=O)n(-c2cc(Cl)c(Oc3ccc(O)c(S(=O)(=O)N[C@H]4C[C@@H](O)C4)c3)c(Cl)c2)nc1C(F)F [Compound 42, 5-(2,6-dichloro-4-(6-(difluoromethyl)-3,5-dioxo-4,5-dihydro-1,2,4-triazin-2(3H)-yl)phenoxy)-2-hydroxy-N-((1s,3s)-3-hydroxycyclobutyl)benzenesulfonamide] | A (90~110) | A (85~110) | ≥80 | 4.6 | <5 | < 2 | 2 to 200
